{"source": "ChEMBL document CHEMBL1142072", "about": "“Comparison of itraconazole and fluconazole treatments in a murine model of coccidioidal meningitis” (2007)", "key": {"Coccidioides immitis [1]": {"tested_on": "Coccidioides immitis", "assay": "Antifungal activity against Coccidioides immitis by broth macrodilution method", "type": "functional", "settings": "for MIC50 / MIC90: Coccidioides immitis"}, "Coccidioides immitis [2]": {"tested_on": "Coccidioides immitis", "assay": "Effect on Coccidioides immitis Silveira infection in CD1 mouse brain, spinal cord and lungs administered after 3 days of infection at 50 mg/kg, po bid after 10 days", "type": "functional, organism-based", "design": "dose 50 mg/kg"}, "Coccidioides immitis [3]": {"tested_on": "Coccidioides immitis", "assay": "Reduction of fungal burden in Coccidioides immitis Silveira infected CD1 mouse lung and kidney administered after 3 days of infection at 10 mg/kg, po bid after 5 days relative to control", "type": "functional, organism-based", "design": "dose 10 mg/kg"}, "Coccidioides immitis [4]": {"tested_on": "Coccidioides immitis", "assay": "Effect on fungal burdens in Coccidioides immitis Silveira infected CD1 mouse lung administered after 3 days of infection at 50 mg/kg, po bid after 12 days", "type": "functional, organism-based", "design": "dose 50 mg/kg"}, "Mus musculus [5]": {"tested_on": "Mus musculus", "assay": "Prolongation of survival in CD1 mouse infected with Coccidioides immitis Silveira administered after 3 days of infection at 10 mg/kg, po bid after 12 days relative to control", "type": "functional, organism-based", "design": "dose 10 mg/kg"}, "Mus musculus [6]": {"tested_on": "Mus musculus", "assay": "Prolongation of survival in CD1 mouse infected with Coccidioides immitis Silveira administered after 3 days of infection at 25 mg/kg, po bid after 12 days relative to control", "type": "functional, organism-based", "design": "dose 25 mg/kg"}, "Coccidioides immitis [7]": {"tested_on": "Coccidioides immitis", "assay": "Effect on fungal burdens in Coccidioides immitis Silveira infected CD1 mouse spinal cord administered after 3 days of infection at 50 mg/kg, po bid after 12 days", "type": "functional"}, "Mus musculus [8]": {"tested_on": "Mus musculus", "assay": "Prolongation of survival in po dosed CD1 mouse infected with Coccidioides immitis Silveira administered after 3 days of infection after 12 days relative to control", "type": "functional, organism-based"}, "Coccidioides immitis [9]": {"tested_on": "Coccidioides immitis", "assay": "Reduction of fungal burden in Coccidioides immitis Silveira infected po dosed CD1 mouse brain, spinal cord, lung, kidney administered twice daily after 3 days of infection measured after 5 days relative to control", "type": "functional, organism-based"}, "Mus musculus [10]": {"tested_on": "Mus musculus", "assay": "Prolongation of survival in CD1 mouse infected with Coccidioides immitis Silveira administered after 3 days of infection at 50 mg/kg, po bid after 12 days relative to control", "type": "functional, organism-based", "design": "dose 50 mg/kg"}, "Coccidioides immitis [11]": {"tested_on": "Coccidioides immitis", "assay": "Effect on fungal burdens in Coccidioides immitis Silveira infected CD1 mouse brain administered after 3 days of infection at 50 mg/kg, po bid after 12 days", "type": "functional"}}, "note": "Activity calls are given as the source filed them. The rule behind the calls is not given here.", "data": [{"smiles": "OC(Cn1cncn1)(Cn1cncn1)c1ccc(F)cc1F", "note": "[FLUCONAZOLE]", "values": [{"measurement": "MFC50", "setting": "Coccidioides immitis [1]", "result": 25, "unit": "µg/mL"}, {"measurement": "MFC90", "setting": "Coccidioides immitis [1]", "result": ">100", "unit": "µg/mL"}, {"measurement": "MIC50", "setting": "Coccidioides immitis [1]", "result": 25, "unit": "µg/mL"}, {"measurement": "MIC90", "setting": "Coccidioides immitis [1]", "result": "> 100", "unit": "µg/mL"}, {"measurement": "Activity", "setting": "Coccidioides immitis [2]", "result": "Active"}, {"measurement": "Activity", "setting": "Coccidioides immitis [3]", "result": "inactive"}, {"measurement": "Activity", "setting": "Coccidioides immitis [4]", "result": "Active"}, {"measurement": "Activity", "setting": "Mus musculus [5]", "result": "Active"}, {"measurement": "Activity", "setting": "Mus musculus [6]", "result": "Active"}, {"measurement": "Activity", "setting": "Coccidioides immitis [7]", "result": "Active"}, {"measurement": "Activity", "setting": "Mus musculus [8]", "result": "Dose-dependent effect"}, {"measurement": "Activity", "setting": "Coccidioides immitis [9]", "result": "Dose-dependent effect"}, {"measurement": "Activity", "setting": "Mus musculus [10]", "result": "Active"}, {"measurement": "Activity", "setting": "Coccidioides immitis [11]", "result": "Active"}]}, {"smiles": "CCC(C)n1ncn(-c2ccc(N3CCN(c4ccc(OCC5COC(Cn6cncn6)(c6ccc(Cl)cc6Cl)O5)cc4)CC3)cc2)c1=O", "note": "(configuration not stated) [ITRACONAZOLE]", "values": [{"measurement": "MFC50", "setting": "Coccidioides immitis [1]", "result": 1.56, "unit": "µg/mL"}, {"measurement": "MFC90", "setting": "Coccidioides immitis [1]", "result": 6.25, "unit": "µg/mL"}, {"measurement": "MIC50", "setting": "Coccidioides immitis [1]", "result": 0.78, "unit": "µg/mL"}, {"measurement": "MIC90", "setting": "Coccidioides immitis [1]", "result": 1.56, "unit": "µg/mL"}, {"measurement": "Activity", "setting": "Coccidioides immitis [2]", "result": "Active"}, {"measurement": "Activity", "setting": "Coccidioides immitis [4]", "result": "Active"}, {"measurement": "Activity", "setting": "Mus musculus [5]", "result": "Active"}, {"measurement": "Activity", "setting": "Mus musculus [6]", "result": "Active"}, {"measurement": "log10CFU/g", "setting": "Coccidioides immitis [7]", "result": 1.73}, {"measurement": "Activity", "setting": "Mus musculus [8]", "result": "Dose-dependent effect"}, {"measurement": "Activity", "setting": "Coccidioides immitis [9]", "result": "Dose-dependent effect"}, {"measurement": "Activity", "setting": "Mus musculus [10]", "result": "Active"}, {"measurement": "log10CFU/g", "setting": "Coccidioides immitis [11]", "result": 0.75}]}]}
